For this experiment, the target named is T1, IRAK4 (Homo sapiens, UniProt Q9NWZ3).
T1 construct: endogenous in cells; host or cells: OCI-LY10
T1 sequence (Q9NWZ3 1-460): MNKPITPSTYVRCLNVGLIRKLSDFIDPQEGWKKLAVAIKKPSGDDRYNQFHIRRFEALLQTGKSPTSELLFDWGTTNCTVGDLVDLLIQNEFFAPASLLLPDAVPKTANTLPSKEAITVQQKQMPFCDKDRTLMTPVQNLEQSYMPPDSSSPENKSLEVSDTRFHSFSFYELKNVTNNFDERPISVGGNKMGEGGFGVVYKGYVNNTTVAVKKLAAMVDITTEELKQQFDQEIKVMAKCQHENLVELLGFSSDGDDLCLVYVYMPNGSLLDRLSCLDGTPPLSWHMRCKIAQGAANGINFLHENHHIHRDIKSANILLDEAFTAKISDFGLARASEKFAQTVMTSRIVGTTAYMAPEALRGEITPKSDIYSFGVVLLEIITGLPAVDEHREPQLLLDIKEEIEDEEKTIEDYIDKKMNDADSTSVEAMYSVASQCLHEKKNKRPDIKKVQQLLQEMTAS
The experiment in a line: IRAK4 MSD degradation in OCI-LY10. Format: cell-based. The note with it: OCI-LY10 cells, 24 hrs, Meso Scale Discovery. Put shortly: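 Remaining IRAK4 protein measured by Meso Scale Discovery electrochemiluminescence sandwich assay on lysates of OCI-LY10 cells. Cells were exposed for 4 to 24 hours (37° C., 5% CO2) to eight 1:3-diluted concentrations starting at 1 to 10 μM. DC50 derived by three-parameter logistic fitting.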

By DC50 is commonly meant the concentration giving 50% degradation. Lower therefore signals a more potent degrader.

In turn, `COc1cc2nn([C@H]3CC[C@H](CN4CCN(c5cccc6c5c(C)nn6C5CCC(=O)NC5=O)CC4)CC3)cc2cc1NC(=O)c1cncc(C)c1` (stereo partly shown) [I-118] returned a DC50 of 10 to 100 nM.

For the molecule `Cn1c(=O)n([C@H]2CCC(=O)NC2=O)c2cccc([C@@H]3CCN(C[C@H]4CC[C@H](n5cc6cc(NC(=O)c7cncc(C(F)(F)F)n7)ccc6n5)CC4)CC3(F)F)c21` (single isomer, unassigned) [I-385], the DC50 was under 10 nM.

As to `Cc1nn(C2CCC(=O)NC2=O)c2cccc(N3CC(CN4CCN(C[C@H]5CC[C@H](n6cc(NC(=O)c7cnn8ccc(N9C[C@H]%10C[C@@H]9CO%10)nc78)c(C(F)F)n6)CC5)CC4)C3)c12` (stereo partly shown) [I-45], the DC50 was under 10 nM.

`Cc1nn(C2CCC(=O)NC2=O)c2cccc([C@@H]3CCN(C[C@H]4CC[C@H](n5cc6cc(NC(=O)c7cccc(C(F)(F)F)n7)ncc6n5)CC4)C[C@H]3F)c12` (stereo partly shown) [I-187] returned a DC50 of 10 to 100 nM.

As to `CN(C[C@H]1CC[C@H](c2nc3cc(C(C)(C)O)c(NC(=O)c4cncc(C(F)(F)F)n4)cc3o2)CC1)[C@H]1CCN(c2cccc3c2n(C)c(=O)n3C2CCC(=O)NC2=O)C[C@@H]1F` (single isomer, unassigned) [I-298], the DC50 is under 10 nM.

`COc1ccc2c(c1N1CC[C@H](N(C)C[C@H]3CC[C@H](n4cc(NC(=O)c5cnn6cccnc56)c(C(F)F)n4)CC3)[C@H](F)C1)n(C)c(=O)n2C1CCC(=O)NC1=O` (single isomer, unassigned) [I-147] showed a DC50 of under 10 nM.

In turn, `Cn1c(=O)n(C2CCC(=O)NC2=O)c2cccc([C@@H]3CCN(C[C@H]4CC[C@H](n5cc6cc(NC(=O)c7cccc(C(F)(F)F)n7)c(C(C)(C)O)cc6n5)CC4)C[C@H]3F)c21` (stereo partly shown) [I-7] returned a half-maximal degradation concentration (DC50) of under 10 nM.

For `COc1cc2nc([C@H]3CC[C@H](CN4CC[C@@H](c5cccc6c5n(C)c(=O)n6C5CCC(=O)NC5=O)[C@H](F)C4)CC3)oc2cc1NC(=O)c1cccc(C(F)(F)F)n1` (single isomer, unassigned) [I-121], the half-maximal degradation concentration (DC50) fell in the range of 10 to 100 nM.

For `Cn1nc(C2CCC(=O)NC2=O)c2cccc([C@H]3CCN(C[C@H]4CC[C@H](n5cc6cc(NC(=O)c7cncc(C(F)(F)F)n7)ncc6n5)CC4)C[C@@H]3F)c21` (single isomer, unassigned) [I-359], the 50% degradation concentration (DC50) fell in the range of 10 to 100 nM.

As to `CN(C[C@H]1CC[C@H](n2cc3cc(NC(=O)c4cccc(C(F)(F)F)n4)c(C(C)(C)O)cc3n2)CC1)[C@H]1CCN(c2cccc3c2n(C)c(=O)n3C2CCC(=O)NC2=O)C[C@H]1F` (stereo partly shown) [I-70], the 50% degradation concentration (DC50) is under 10 nM.

Take `CN(C[C@H]1C[C@@H](n2cc(NC(=O)c3cnn4ccc(N5C[C@H]6C[C@@H]5CO6)nc34)c(C(F)F)n2)C1)[C@@H]1CCN(c2cccc3c2n(C)c(=O)n3C2CCC(=O)NC2=O)C[C@@H]1F` (stereo partly shown) [I-64]: the DC50 was under 10 nM.

In the case of `CN(C[C@H]1CC[C@H](n2cc(NC(=O)c3cnn4ccc(N5C[C@H]6C[C@@H]5CO6)nc34)c(C(F)F)n2)CC1)[C@@H]1CCN(c2cccc3c2n(C)c(=O)n3C2CCC(=O)NC2=O)C[C@@H]1F` (single isomer, unassigned) [I-29], the 50% degradation concentration (DC50) was under 10 nM.

On to `O=C1CCC(Nc2ccc(N3CC(CO[C@@H]4CCN(C[C@H]5CC[C@H](n6cc(NC(=O)c7cnn8ccc(N9C[C@H]%10C[C@@H]9CO%10)nc78)c(C(F)F)n6)CC5)C[C@@H]4F)C3)cc2)C(=O)N1` (single isomer, unassigned) [I-73], for which the half-maximal degradation concentration (DC50) lay in the range of 10 to 100 nM.

`Cn1c(=O)n(C2CCC(=O)NC2=O)c2cccc(N3CCC4(CCN(C[C@H]5CC[C@H](n6cc7cc(NC(=O)c8cccc(C(F)(F)F)c8)ccc7n6)CC5)CC4(F)F)CC3)c21` (stereo partly shown) [I-158] yielded a half-maximal degradation concentration (DC50) of 10 to 100 nM.

Regarding `COc1cc2nc([C@H]3CC[C@H](CN4CC[C@@H](c5cccc6c5n(C)c(=O)n6C5CCC(=O)NC5=O)[C@H](F)C4)CC3)sc2cc1NC(=O)c1cccc(C(F)(F)F)n1` (single isomer, unassigned) [I-78], the DC50 lay in the range of 100 to 200 nM.

In the case of `Cn1c(=O)n(C2CCC(=O)NC2=O)c2ccc([C@@H]3CCN(C[C@H]4CC[C@H](n5cc6cc(NC(=O)c7cncc(C(F)(F)F)n7)ccc6n5)CC4)C[C@H]3F)cc21` (single isomer, unassigned) [I-349], the DC50 is over 200 nM.

With `Cn1nc(N2CCC(=O)NC2=O)c2cccc(N3CC(CN4CCN(C[C@H]5CC[C@H](n6cc(NC(=O)c7cnn8ccc(N9C[C@H]%10C[C@@H]9CO%10)nc78)c(C(F)F)n6)CC5)CC4)C3)c21` [I-91], the 50% degradation concentration (DC50) is 10 to 100 nM.

`Cn1c(=O)n(C2CCC(=O)NC2=O)c2ccc(F)c(N3CCC4(CCN(C[C@H]5CC[C@H](n6cc7cc(NC(=O)c8cncc(C(F)(F)F)n8)ccc7n6)CC5)CC4(F)F)CC3)c21` (stereo partly shown) [I-399] came in with a DC50 of 10 to 100 nM.

Take `CN(C[C@H]1CC[C@H](c2cc3cc(NC(=O)c4cncc(C(F)(F)F)n4)ccn3n2)CC1)[C@@H]1CCN(c2cccc3c2n(C)c(=O)n3C2CCC(=O)NC2=O)C[C@@H]1F` (single isomer, unassigned) [I-211]: the half-maximal degradation concentration (DC50) was over 200 nM.

Molecule `CN(C[C@H]1CC[C@H](c2cc3cc(NC(=O)c4cncc(C(F)(F)F)n4)ccn3n2)CC1)[C@H]1CCN(c2cccc3c2n(C)c(=O)n3C2CCC(=O)NC2=O)C[C@@H]1F` (single isomer, unassigned) [I-292] displayed a 50% degradation concentration (DC50) of 10 to 100 nM.

As to `COc1cc2nc([C@H]3CC[C@H](CN4CCC5(CCN(c6cccc7c6n(C)c(=O)n7C6CCC(=O)NC6=O)CC5)C(F)(F)C4)CC3)cn2cc1NC(=O)c1cncc(C#N)c1` (stereo partly shown) [I-168], the DC50 was over 200 nM.

`COc1cc2nc([C@H]3CC[C@H](CN4CC[C@@H](c5cccc6c5n(C)c(=O)n6C5CCC(=O)NC5=O)[C@H](F)C4)CC3)cn2cc1NC(=O)c1cncc(C#N)c1` (stereo partly shown) [I-198] registered a half-maximal degradation concentration (DC50) of over 200 nM.

With `COc1cc(C(=O)Nc2ccc3nn([C@H]4CC[C@H](CN5CC[C@@H](c6cccc7c6n(C)c(=O)n7C6CCC(=O)NC6=O)C(F)(F)C5)CC4)cc3c2)nc(C(F)(F)F)c1` (stereo partly shown) [I-401], the DC50 is over 200 nM.

`CN(C[C@H]1CC[C@H](c2cn3cc(NC(=O)c4cncc(C(F)(F)F)n4)c(C(C)(C)O)cc3n2)CC1)[C@@H]1CCN(c2cccc3c2n(C)c(=O)n3C2CCC(=O)NC2=O)C[C@@H]1F` (single isomer, unassigned) [I-344] yielded a DC50 of under 10 nM.

In turn, `Cn1c(=O)n(C2CCC(=O)NC2=O)c2cccc(C#CCN3CCN(C[C@H]4CC[C@H](n5cc(NC(=O)c6cnn7ccc(N8C[C@H]9C[C@@H]8CO9)nc67)c(C(F)F)n5)CC4)[C@H](C(F)(F)F)C3)c21` (stereo partly shown) [I-345] returned a DC50 of 10 to 100 nM.

`CN(C[C@H]1CC[C@H](n2cc(NC(=O)c3cnn4cccnc34)c(C(F)F)n2)CC1)[C@H]1CCN(c2cccc3c2n(C)c(=O)n3C2CCC(=O)NC2=O)C[C@H]1F` (single isomer, unassigned) [I-145] displayed a DC50 of under 10 nM.

`Cn1c(=O)n(C2CCC(=O)NC2=O)c2cccc([C@H]3CCN(C[C@H]4CC[C@H](c5nc6cc(C(C)(C)O)c(NC(=O)c7cncc(C(F)(F)F)n7)cc6o5)CC4)CC3(F)F)c21` (single isomer, unassigned) [I-328]: the half-maximal degradation concentration (DC50) lay within 10 to 100 nM.

Molecule `COc1ccc2c(c1N1CC3(CCN(C[C@H]4CC[C@H](n5cc6cc(NC(=O)c7cncc(C#N)c7)c(C(C)(C)O)cc6n5)CC4)CC3(F)F)C1)n(C)c(=O)n2[C@@H]1CCC(=O)NC1=O` (single isomer, unassigned) [I-235] displayed a DC50 of under 10 nM.

In turn, `CN(C[C@H]1CC[C@H](n2cc(NC(=O)c3cnn4ccc(N5CCCC5)nc34)c(C(F)F)c2)CC1)[C@@H]1CCN(c2cccc3c2n(C)c(=O)n3C2CCC(=O)NC2=O)C[C@@H]1F` (stereo partly shown) [I-23] gave a DC50 of under 10 nM.

`COc1cc2nn([C@H]3CC[C@H](CN4CCC5(CCN(c6cccc7c6c(C)nn7C6CCC(=O)NC6=O)CC5)C(F)(F)C4)CC3)cc2cc1NC(=O)c1cncc(C#N)c1` (stereo partly shown) [I-131] displayed a DC50 of 10 to 100 nM.

On to `COc1cn2nc([C@H]3CC[C@H](CN(C)[C@H]4CCN(c5cccc6c5n(C)c(=O)n6C5CCC(=O)NC5=O)C[C@@H]4F)CC3)cc2cc1NC(=O)c1cncc(C(F)(F)F)n1` (stereo partly shown) [I-301], for which the DC50 was under 10 nM.

Molecule `CN(C[C@H]1CC[C@H](c2nc3cc(C(C)(C)O)c(NC(=O)c4cccc(C(F)(F)F)n4)cc3o2)CC1)[C@@H]1CCN(c2cccc3c2n(C)c(=O)n3C2CCC(=O)NC2=O)C[C@@H]1F` (stereo partly shown) [I-139] registered a 50% degradation concentration (DC50) of under 10 nM.

Molecule `CN(C[C@H]1CC[C@H](n2cc3cc(NC(=O)c4cccc(C(F)(F)F)n4)c(C#N)cc3n2)CC1)[C@@H]1CCN(c2cccc3c2n(C)c(=O)n3C2CCC(=O)NC2=O)C[C@H]1F` (stereo partly shown) [I-58] returned a 50% degradation concentration (DC50) of under 10 nM.

In turn, `Cn1c(=O)n(C2CCC(=O)NC2=O)c2cccc([C@H]3CCN(C[C@H]4CC[C@H](n5cc6cc(NC(=O)c7cccc(C(F)(F)F)n7)ccc6n5)CC4)C[C@@H]3F)c21` (single isomer, unassigned) [I-11] came in with a DC50 of under 10 nM.

Molecule `Cn1c(=O)n(C2CCC(=O)NC2=O)c2cccc([C@@H]3CCN(C[C@H]4CC[C@H](n5cc6cc(NC(=O)c7cccnn7)ccc6n5)CC4)C[C@H]3F)c21` (stereo partly shown) [I-164] returned a DC50 of 10 to 100 nM.

Take `COc1cn2nc([C@H]3CC[C@H](CN4CCC5(CCN(c6cccc7c6n(C)c(=O)n7C6CCC(=O)NC6=O)CC5)C(F)(F)C4)CC3)cc2cc1NC(=O)c1cncc(C#N)c1` (stereo partly shown) [I-282]: the DC50 was over 200 nM.

For `CN(C[C@H]1CC[C@H](n2cc3cc(NC(=O)c4cccc(C(F)(F)F)n4)ccc3n2)CC1)[C@H]1CCN(c2cccc3c2n(C)c(=O)n3C2CCC(=O)NC2=O)C[C@H]1F` (stereo partly shown) [I-31], the half-maximal degradation concentration (DC50) is under 10 nM.

The record behind these values is patent US20250059164A1, “IRAK DEGRADERS AND USES THEREOF” (Kymera Therapeutics, Inc., priority 2023, published 2025).
